In ChEMBL document CHEMBL1157990, “Iridal-type triterpenoids with ichthyotoxic activity from belamcanda chinensis” (J Nat Prod, 1999) one finds LC50 data, which are given here for twelve molecules.

Molecules are shown by their SMILES. Values after ≈ are worked out from the molar mass of the structure shown. A value given as a limit tells only on which side of the number the result lay.

This series in a line: Ichthyotoxicity against Oryzias latipes after 24 hrs. Format: organism-based. The note with it: in vivo, read-out: TLm.

Turning to `CCCCCCCCCCCCCC(=O)OCCC[C@@H]1/C(=C(/C)C=O)CC[C@](C)(O)[C@@]1(C)CC/C=C(\C)[C@@H](C/C=C(\C)CCC=C(C)C)OC(C)=O`, the LC50 at 24 h is greater than 10 µg/mL. On to `CC(C)=CCC/C(C)=C/C=C/C(C)=C/[C@@H]1C[C@@]2(C(O)O1)[C@H](CCCO)/C(=C(/C)C=O)CC[C@]2(C)O` (some centres not stated), for which the LC50 at 24 h worked out at 5.5 µg/mL (≈ 11.3 µM).

For the molecule `CC(=O)OCCC[C@@H]1/C(=C(/C)C=O)CC[C@](C)(O)[C@@]1(C)CC/C=C(\C)[C@H](O)C/C=C(\C)CCC=C(C)C`, the LC50 at 24 h came to 0.8 µg/mL (≈ 1.55 µM). For `CC(=O)OCCC[C@@H]1/C(=C(/C)C=O)CC[C@](C)(O)[C@@]1(C)CC/C=C(\C)[C@@H](C/C=C(\C)CCC=C(C)C)OC(C)=O` the value was greater than 10 µg/mL; for `C=C(/C=C/C=C(\C)CCC=C(C)C)[C@@H]1CC[C@]2([C@H](CCCO)/C(=C(/C)C=O)CC[C@]2(C)O)[C@@H]1O`, 1.6 µg/mL (≈ 3.4 µM). To `CCCCCCCCCC(=O)OCCC[C@@H]1/C(=C(/C)C=O)CC[C@](C)(O)[C@@]1(C)CC/C=C(\C)[C@@H](C/C=C(\C)CCC=C(C)C)OC(C)=O` belongs greater than 30 µg/mL; to `CC(C)=CCC/C(C)=C/C=C/C(C)=C/[C@@H]1C[C@@]23[C@H](OCCC[C@@H]2/C(=C(/C)C=O)CC[C@]3(C)O)O1` [ANHYDROBELACHINAL], greater than 10 µg/mL; to `CC(C)=CCC/C(C)=C/C=C/C(C)=C/[C@H]1C[C@@]2(C(O)O1)[C@H](CCCO)/C(=C(/C)C=O)CC[C@]2(C)O` (some centres not stated) [BELACHINAL], 2.8 µg/mL (≈ 5.75 µM). As for `C=C1CC/C=C(\C)C(=O)[C@H](O)[C@@H]2[C@@H]1CC2(C)C` [BUDDLEDIN B], the LC50 at 24 h came to 1.2 µg/mL (≈ 5.12 µM). For the molecule `CC(C)=CCC/C(C)=C/C=C/C(C)=C/[C@H]1C[C@@]23[C@H](OCCC[C@@H]2/C(=C(/C)C=O)CC[C@]3(C)O)O1` [EPIANHYDROBELACHINAL], the LC50 at 24 h was greater than 10 µg/mL. For `CCCCCCCCCCCCCC(=O)OCCC[C@@H]1/C(=C(/C)C=O)CC[C@](C)(O)[C@@]1(C)CC/C=C(\C)[C@H](O)C/C=C(\C)CCC=C(C)C` [IRISTECTORENE B] the value was 3.5 µg/mL (≈ 5.11 µM); for `CC(C)=CCC/C(C)=C/C[C@@H](O)/C(C)=C/CC[C@@]1(C)[C@H](CCCO)/C(=C(/C)C=O)CC[C@]1(C)O` [ISOIRIDOGERMANAL], 9.3 µg/mL (≈ 19.6 µM).
